Assays:
[1] = molecular target: T1, CD73 (Homo sapiens, UniProt P21589); assay: CD73 biochemical assay, Malachite Green detection of AMP hydrolysis; conditions: CD73 320 pM, AMP 15 μM, Malachite Green readout
T1 sequence (P21589 27-549): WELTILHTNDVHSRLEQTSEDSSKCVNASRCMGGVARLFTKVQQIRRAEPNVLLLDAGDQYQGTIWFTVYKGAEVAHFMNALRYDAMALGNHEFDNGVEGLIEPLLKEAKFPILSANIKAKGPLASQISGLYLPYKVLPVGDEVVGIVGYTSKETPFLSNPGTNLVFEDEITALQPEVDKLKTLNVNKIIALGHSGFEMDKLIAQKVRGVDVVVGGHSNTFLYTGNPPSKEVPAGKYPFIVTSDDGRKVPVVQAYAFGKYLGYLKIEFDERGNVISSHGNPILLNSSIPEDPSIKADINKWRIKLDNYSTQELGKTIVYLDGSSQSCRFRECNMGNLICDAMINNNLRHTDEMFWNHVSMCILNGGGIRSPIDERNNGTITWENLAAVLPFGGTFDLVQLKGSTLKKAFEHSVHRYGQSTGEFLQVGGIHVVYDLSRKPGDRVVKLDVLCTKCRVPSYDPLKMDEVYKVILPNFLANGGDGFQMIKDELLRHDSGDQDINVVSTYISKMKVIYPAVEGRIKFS
How it was run: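 Human CD73 (0.3208 nM, i.e. 320 pM) preincubated 15 min RT with compounds (10-point ½-log titration from 100 μM, duplicates) in Tris pH 7.4, 5 mM MgCl2, Brij-35, BSA; 15 μM AMP added, 10 min RT. Phosphate read by Malachite Green absorbance; IC50 determined.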

[2] = molecular target: T2, cell bound CD73 on Human NSCLC H1568 cells (Homo sapiens, UniProt P21589); assay: Cellular CD73 assay in H1568 cells, adenosine produced from AMP by LC-MS/MS; type: cell-based; conditions: RPMI/10% human plasma, 1 h with AMP/EHNA, adenosine in supernatant
T2 construct: Human NSCLC H1568 cells expressing endogenous CD73 on their surface; host or cells: H1568 (human NSCLC)
T2 sequence (P21589 27-549): T1 sequence (P21589 27-549)
Method: Activity of cell bound CD73 was assessed by direct measurement of adenosine produced from AMP using liquid chromatography with tandem mass-spectrometry (LC-MS/MS). Human NSCLC H1568 cells expressing endogenous CD73 on their surface were obtained from ATCC(CRL-5876) and cultured in growth medium (RPMI, 10% FBS, 1 mM L-glutamine, […]). Cells were seeded onto 96-well tissue culture plates at 10,000 cells/well and allowed to adhere for 20-24 h. 500× serial compound dilutions were prepared in DMSO in a 12-point 3-fold titration, and then diluted 1:50 into RPMI supplemented with 10% human plasma (BioIVT, cat #HMPLEDTA5) generating 10× compound dilutions. Growth medium was removed from the cells and replaced with […] of RPMI/10% human plasma. 10 mL of 10× compound dilutions were then added to the cells and incubated for 15 min at 37° C., 5% CO2. Then 10 mL of 100 mM AMP/50 mM EHNA (Sigma-Aldrich, A1752 and E114) were added to a final concentration of […]. After 1 h incubation at 37° C., 5% CO2, […] of supernatant was removed from the cells and transferred to a deep well polypropylene 96-well plate (Costar #3961) prefilled with 240 mL of organic solvent composed of methanol:acetonitrile (1:1, v/v) with 0.1% formic acid, plus 150 ng/mL of Adenosine-15N and AMP-13C as internal standards. Amount of unlabeled adenosine and AMP in each well was measured on AB Sciex API 4000 QTrap with Shimadzu LC-30AD UPLC system. Limits of adenosine and AMP detection were 10-10,000 nM and 20-10,000 nM, respectively. The IC50 values were determined based on amount of adenosine in the supernatant using four parameter non-linear regression curve fit. DMSO treated cells produced 3000-4000 nM adenosine under these conditions with negligible variability on the same day assays. Small amount of adenosine generated from AMP in the absence of cells (less than 100 nM) was used as 100% inhibition control. […]

[3] = molecular target: T3, mouse CD73 (EMT6 breast cancer cells) (Mus musculus, UniProt Q61503); assay: Cellular CD73 assay in mouse EMT6 breast cancer cells, adenosine by LC-MS/MS; type: cell-based; conditions: PBS/3% BSA, adenosine in supernatant
T3 construct: mouse EMT6 breast cancer cells which express endogenous CD73 on their surface; host or cells: EMT6 (mouse breast cancer)
T3 sequence (Q61503 29-551): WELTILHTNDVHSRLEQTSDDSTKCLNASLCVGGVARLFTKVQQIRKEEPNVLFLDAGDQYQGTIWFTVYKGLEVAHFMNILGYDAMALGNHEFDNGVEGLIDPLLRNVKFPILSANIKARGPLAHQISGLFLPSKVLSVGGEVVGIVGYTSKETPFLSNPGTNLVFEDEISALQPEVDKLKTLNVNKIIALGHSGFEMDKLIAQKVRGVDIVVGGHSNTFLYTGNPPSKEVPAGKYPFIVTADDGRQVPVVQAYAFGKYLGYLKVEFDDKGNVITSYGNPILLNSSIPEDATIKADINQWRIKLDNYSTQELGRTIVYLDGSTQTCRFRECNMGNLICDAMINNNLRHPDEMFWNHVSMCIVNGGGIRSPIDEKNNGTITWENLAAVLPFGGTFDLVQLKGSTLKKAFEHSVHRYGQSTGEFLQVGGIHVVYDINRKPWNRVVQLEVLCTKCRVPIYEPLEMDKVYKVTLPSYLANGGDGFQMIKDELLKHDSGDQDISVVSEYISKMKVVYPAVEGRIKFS
Method: Activity of cell bound CD73 was assessed by direct measurement of adenosine produced from AMP using liquid chromatography with tandem mass-spectrometry (LC-MS/MS). Human NSCLC H1568 cells expressing endogenous CD73 on their surface were obtained from ATCC(CRL-5876) and cultured in growth medium (RPMI, 10% FBS, 1 mM L-glutamine, 100 mL penicillin-streptomycin). Cells were seeded onto 96-well tissue culture plates at 10,000 cells/well and allowed to adhere for 20-24 h. 500× serial compound dilutions were prepared in DMSO in a 12-point 3-fold titration, and then diluted 1:50 into RPMI supplemented with 10% human plasma (BioIVT, cat #HMPLEDTA5) generating 10× compound dilutions. Growth medium was removed from the cells and replaced with […] of RPMI/10% human plasma. 10 mL of 10× compound dilutions were then added to the cells and incubated for 15 min at 37° C., 5% CO2. Then 10 mL of 100 mM AMP/50 mM EHNA (Sigma-Aldrich, A1752 and E114) were added to a final concentration of 10 mM AMP/5 mM EHNA. After 1 h incubation at 37° C., 5% CO2, 80 mL of supernatant was removed from the cells and transferred to a deep well polypropylene 96-well plate (Costar #3961) prefilled with 240 mL of organic solvent composed of methanol:acetonitrile (1:1, v/v) with 0.1% formic acid, plus 150 ng/mL of Adenosine-15N and AMP-13C as internal standards. Amount of unlabeled adenosine and AMP in each well was measured on AB Sciex API 4000 QTrap with Shimadzu LC-30AD UPLC system. Limits of adenosine and AMP detection were 10-10,000 nM and 20-10,000 nM, respectively. The IC50 values were determined based on amount of adenosine in the supernatant using four parameter non-linear regression curve fit. DMSO treated cells produced 3000-4000 nM adenosine under these conditions with negligible variability on the same day assays. Small amount of adenosine generated from AMP in the absence of cells (less than 100 nM) was used as 100% inhibition control.
To determine activity of compounds on mouse CD73 mouse EMT6 breast cancer cells which express endogenous CD73 on their surface (ATCC, CRL-2755) were used. […]

## COC[C@](COCc1nn[nH]n1)(OC[C@H]1O[C@@H](c2ccc3c(NC4CCCC4)nc(Cl)nn23)[C@H](O)[C@@H]1O)P(=O)(O)O (single isomer, unassigned) [Example 9]
[1]
  IC50: ≤ 500 pM
[2]
  EC50: ≤ 500 pM
[3]
  EC50: ≤ 500 pM

## O=P(O)(O)[C@@](CO)(COCc1nn[nH]n1)OC[C@H]1O[C@@H](c2ccc3c(NC4CCCC4)nc(Cl)nn23)[C@H](O)[C@@H]1O [Example 15, ((S)-1-((2H-Tetrazol-5-yl)methoxy)-2-(((2R,3S,4R,5S)-5-(2-chloro-4-(cyclopentylamino)pyrrolo[2,1-f][1,2,4]triazin-7-yl)-3,4-dihydroxytetrahydrofuran-2-yl)methoxy)-3-hydroxypropan-2-yl)phosphonic acid]
[1]
  IC50: ≤ 500 pM
[2]
  EC50: 500 to 1000 pM
[3]
  EC50: 1000 to 100000 pM

## O=P(O)(O)[C@@](CO)(COCc1nn[nH]n1)OC[C@H]1O[C@@H](c2ccc3c(NC4CCC4)nc(Cl)nn23)[C@H](O)[C@@H]1O [Example 51, ((S)-1-((2H-tetrazol-5-yl)methoxy)-2-(((2R,3S,4R,5S)-5-(2-chloro-4-(cyclobutylamino)pyrrolo[2,1-f][1,2,4]triazin-7-yl)-3,4-dihydroxytetrahydrofuran-2-yl)methoxy)-3-hydroxypropan-2-yl)phosphonic acid]
[1]
  IC50: ≤ 500 pM
[2]
  EC50: ≤ 500 pM
[3]
  EC50: 500 to 1000 pM

## O=P(O)(O)[C@](CO)(COCc1nn[nH]n1)OC[C@H]1O[C@@H](c2ccc3c(NCC4CCC4)nc(Cl)nn23)[C@H](O)[C@@H]1O [Example 53, ((R)-1-((2H-tetrazol-5-yl)methoxy)-2-(((2R,3S,4R,5S)-5-(2-chloro-4-((cyclobutylmethyl)amino)pyrrolo[2,1-f][1,2,4]triazin-7-yl)-3,4-dihydroxytetrahydrofuran-2-yl)methoxy)-3-hydroxypropan-2-yl)phosphonic acid]
[1]
  IC50: 1000 to 100000 pM

## O=P(O)(O)[C@](CO)(COCc1nn[nH]n1)OC[C@H]1O[C@@H](c2ccc3c(NCC4CC4)nc(Cl)nn23)[C@H](O)[C@@H]1O [Example 54, ((R)-1-((2H-tetrazol-5-yl)methoxy)-2-(((2R,3S,4R,5S)-5-(2-chloro-4-((cyclopropylmethyl)amino)pyrrolo[2,1-f][1,2,4]triazin-7-yl)-3,4-dihydroxytetrahydrofuran-2-yl)methoxy)-3-hydroxypropan-2-yl)phosphonic acid]
[1]
  IC50: 1000 to 100000 pM

## [2H]C([2H])([2H])OC[C@](COCc1nn[nH]n1)(OC[C@H]1O[C@@H](c2ccc3c(NC4CCCC4)nc(Cl)nn23)[C@H](O)[C@@H]1O)P(=O)(O)O [Example 55, ((S)-1-((2H-tetrazol-5-yl)methoxy)-2-(((2R,3S,4R,5S)-5-(2-chloro-4-(cyclopentylamino)pyrrolo[2,1-f][1,2,4]triazin-7-yl)-3,4-dihydroxytetrahydrofuran-2-yl)methoxy)-3-(methoxy-d3)propan-2-yl)phosphonic acid]
[1]
  IC50: ≤ 500 pM

## COCC(CO)(OC[C@H]1O[C@@H](c2cnn3c(NC4CCCC4)cc(Cl)nc23)[C@H](O)[C@@H]1O)P(=O)(O)O (stereo partly drawn) [Example 56, (2-(((2R,3S,4R,5S)-5-(5-chloro-7-(cyclopentylamino)pyrazolo[1,5-a]pyrimidin-3-yl)-3,4-dihydroxytetrahydrofuran-2-yl)methoxy)-1-hydroxy-3-methoxypropan-2-yl)phosphonic acid]
[1]
  IC50: 1000 to 100000 pM

## COCC(COCc1nn[nH]n1)(OC[C@H]1O[C@@H](c2cnn3c(NC4CCCC4)cc(Cl)nc23)[C@H](O)[C@@H]1O)P(=O)(O)O (stereo partly drawn) [Example 57, (1-((2H-tetrazol-5-yl)methoxy)-2-(((2R,3S,4R,5S)-5-(5-chloro-7-(cyclopentylamino)pyrazolo[1,5-a]pyrimidin-3-yl)-3,4-dihydroxytetrahydrofuran-2-yl)methoxy)-3-methoxypropan-2-yl)phosphonic acid]
[1]
  IC50: ≤ 500 pM

— patent publication US12544391B2, “CD73 inhibitors” (ORIC Pharmaceuticals, Inc., priority 2019, dated 2026)
